# Read-outs that look alike come from different tables or passages of the source.
# Experiments:
# [1] = system: lipoprotein; test: Glycation of lipoprotein by sugars; format: biochemical; conditions: for glycation of the lipoprotein by glucose and D-ribose: combined with glucose or D-ribose, and lipoprotein
# Excerpt: When dried beer solids, […], Vitamin E and Vitamin C were combined with glucose or D-ribose, and lipoprotein, glycation of the lipoprotein by glucose and D-ribose was inhibited. Similarly when RBC-Vitamin C or Vitamin E were combined with sorbitol and lipoprotein, glycation of the lipoprotein by sorbitol was inhibited.
# [2] = system: LDL; conditions: humans, daily ingestion of 1,200 IU; cited from earlier work
# [3] = system: lipoprotein; test: Inhibition of lipoprotein oxidation (heart disease model); format: biochemical; set-up: % Inhibition Vit C Alone: concentration or dose not given beside the values
# Excerpt: Various combinations of antioxidants were studied to determine synergetic effects on lipoprotein oxidation. […] The antioxidants were used alone and together at micromolar and submolar concentrations to determine additive and […] effects on percentage inhibition of lipoprotein oxidation. A result when used together which is greater than the sum of this effects alone is considered to be a synergistic response. […] (Upper Panel) and Grow C (a natural Vitamin C extract) (Lower Panel).
compound,measurement,setting,value
"Cc1c(C)c2c(c(C)c1O)CC[C@@](C)(CCC[C@H](C)CCC[C@H](C)CCCC(C)C)O2 [E, α-tocopherol]",glycation of the lipoprotein by glucose and D-ribose,[1],inhibited
same,glycation of the lipoprotein by sorbitol,[1]; combined with sorbitol and lipoprotein,inhibited
same,increase of the (alpha)-tocopherol content of LDL,[2],up to 215%
same,increase of the resistance of LDL to oxidation,[2],≤ 175%
same,% Inhibition of E Alone,[3]; E 25.6 mg,10.1%
"O=C1O[C@H]([C@@H](O)CO)C(O)=C1O [Vit C, ascorbic acid]",glycation of the lipoprotein by glucose and D-ribose,[1],inhibited
same,% Inhibition Vit C Alone,[3]; line of Weight Ratio Vit C:DBS 0.136:1,0%
same,% Inhibition Vit C Alone,[3]; line of Weight Ratio Vit C:DBS 0.274:1,1.2%
same,% Inhibition Vit C Alone,[3]; line of Weight Ratio Vit C:DBS 0.343:1,2.0%
same,% Inhibition Vit C Alone,[3]; line of Weight Ratio Vit C:DBS 0.520:1,2.6%
same,% Inhibition Vit C Alone,[3]; line of Weight Ratio Vit C:DBS 0.680:1,3.0%
Catechin,quantity of L-ascorbic acid remaining,"0 h (time zero, reference)",100%
same,quantity of L-ascorbic acid remaining,"6 h, test substance 0.01 mg/ml",14.6%
same,quantity of L-ascorbic acid remaining,"6 h, test substance 0.1 mg/ml",16.7%
same,quantity of L-ascorbic acid remaining,"6 h, test substance 1.0 mg/ml",17.7%
same,quantity of L-ascorbic acid remaining,"20 h, test substance 0.01 mg/ml",0.8%
same,quantity of L-ascorbic acid remaining,"20 h, test substance 0.1 mg/ml",0.8%
same,quantity of L-ascorbic acid remaining,"20 h, test substance 1.0 mg/ml",1.0%
same,quantity of L-ascorbic acid remaining,"44 h, test substance 0.01 mg/ml",1.4%
same,quantity of L-ascorbic acid remaining,"44 h, test substance 0.1 mg/ml",1.0%
same,quantity of L-ascorbic acid remaining,"44 h, test substance 1.0 mg/ml",1.2%
same,quantity of L-ascorbic acid remaining,"72 h, test substance 0.01 mg/ml",2.4%
same,quantity of L-ascorbic acid remaining,"72 h, test substance 0.1 mg/ml",2.0%
same,quantity of L-ascorbic acid remaining,"72 h, test substance 1.0 mg/ml",2.2%
same,inhibition of L-ascorbic acid degradation,tested up to 1.0 mg/ml,Neither epicatechin (EPC) nor catechin (CAT) showed any inhibitory effects
